For one assay, the target named is T7 RNA polymerase (Escherichia phage T7, UniProt P00573). Briefly: In vitro transcription of luciferase mRNA by co-transcriptional capping (IVT yield). Format: biochemical. Particulars: 8 mM cap analog, luciferase DNA template, 37° C. 2 to 3 hours; compared with Cleancap AG(3′OMe) designated as 100%; FIG. 4. As to the method: For the mRNA synthesis reaction using the compounds prepared in Example 15 and Example 16 above, a transcription buffer was used, and the composition of the buffer was Tris-Cl buffer: spermidine:Triton X=4:2:1 volume ratio. In the buffer, 50 μg/ml luciferase DNA transcription template, 10 mM ATP, 10 mM CTP, 10 mM UTP, 2 mM GTP, and 8 mM compound prepared in Example 15 or Example 16, 300 KU/ml T7 RNA polymerase, 2 KU/ml RNase inhibitor protein, 20 U/ml inorganic pyrophosphatase, 40 mM Tris-HCl (pH 8.0), 50 mM magnesium chloride, and 10 mM dithiothreitol were added to prepare the transcription reaction mixture. […] The concentration of the purified mRNA sample was determined using a fluorometer instrument, and the total amount of mRNA was calculated by multiplying the concentration and reaction volume. Then, in order to derive the mRNA in vitro transcription (IVT) yield, the total amount of mRNA synthesized using each different cap analog was divided by the input L-DNA content to quantify the IVT yield value according to the cap analog. […] This may be calculated using [Equation 1] below. […]
T7 RNA polymerase, sequence (P00573 whole entry): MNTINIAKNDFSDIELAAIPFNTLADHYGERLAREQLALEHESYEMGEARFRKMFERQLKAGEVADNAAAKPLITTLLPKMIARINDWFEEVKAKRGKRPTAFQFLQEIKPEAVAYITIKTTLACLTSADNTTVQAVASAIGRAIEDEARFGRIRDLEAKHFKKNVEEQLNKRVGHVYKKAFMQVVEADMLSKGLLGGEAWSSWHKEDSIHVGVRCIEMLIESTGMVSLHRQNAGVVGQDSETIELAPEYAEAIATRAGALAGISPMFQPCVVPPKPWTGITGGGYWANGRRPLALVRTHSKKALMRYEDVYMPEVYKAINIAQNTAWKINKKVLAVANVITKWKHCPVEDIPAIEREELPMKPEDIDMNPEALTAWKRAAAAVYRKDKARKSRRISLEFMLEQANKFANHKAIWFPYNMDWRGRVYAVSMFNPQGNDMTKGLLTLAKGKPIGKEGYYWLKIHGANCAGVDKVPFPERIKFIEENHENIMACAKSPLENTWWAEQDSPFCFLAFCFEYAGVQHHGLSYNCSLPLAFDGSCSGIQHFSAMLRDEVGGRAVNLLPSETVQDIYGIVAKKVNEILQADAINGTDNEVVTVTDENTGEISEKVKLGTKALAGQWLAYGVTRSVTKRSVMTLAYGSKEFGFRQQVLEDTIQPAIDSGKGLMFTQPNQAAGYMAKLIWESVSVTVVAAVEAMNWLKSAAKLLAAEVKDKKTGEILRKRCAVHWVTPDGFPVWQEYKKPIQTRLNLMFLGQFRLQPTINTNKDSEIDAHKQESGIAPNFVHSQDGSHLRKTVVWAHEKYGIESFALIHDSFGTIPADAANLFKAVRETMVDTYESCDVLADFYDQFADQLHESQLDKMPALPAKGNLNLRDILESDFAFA

A further assay relates to HeLa cells. Briefly: Translation of luciferase mRNA in HeLa cells (luciferase activity after transfection of capped mRNA). Format: cell-based. As to the method: The translational activity of the mRNAs generated by the IVT reactions of each Example 15, Example 16, and ^7mG(3OMe)pppA(2′OMe)pG was evaluated by transfecting the corresponding mRNAs into the HeLa cell line. All mRNAs synthesized through IVT reaction before transfection were subjected to poly(A) tailing process. Specifically, IVT mRNA, whose mRNA synthesis reaction was terminated by adding DNase 1, was mixed with IVT mRNA:10× poly (A) polymerase reaction buffer:10 mM ATP solution:poly (A) polymerase enzyme (4 KU/ml):nuclease-free water=20:10:10:2:58 ratio (volume/volume), reacted at 37° C. for 30 minutes to 1 hour, and then incubated at 4° C. to terminate the reaction. […] Cells were harvested 6, 12, and 24 hours after transfection, and luciferase activity was measured using Renilla-Glo™ Luciferase Assay kit (Promega catalog #E2710) according to the manufacturer's recommendations: After removing the medium from the transfected cells, 50 μl phosphate buffer solution (PBS) was added. Afterwards, 50 μl of Renilla-Glo™ Luciferase Assay reagent was added, mixed, and incubated for 10 minutes, and then luciferase activity was detected using Varioskan LUX Multimode Microplate Reader (Thermo Fisher) (FIG. 5). […]

As for `CO[C@@H]1[C@H](OP(=O)(O)OC[C@H]2O[C@@H](n3cnc4c(=O)[nH]c(N)nc43)[C@H](O)[C@@H]2O)[C@@H](COP(=O)(O)OP(=O)(O)OP(=O)(O)OC[C@H]2O[C@@H](n3c[n+](C)c4c(=O)[nH]c(N)nc43)[C@H](OC(=O)C(C)(C)C)[C@@H]2OC(=O)C(C)(C)C)O[C@H]1n1cnc2c(N)ncnc21.[Na+].[Na+].[Na+]` [Example 15, ^7mG(2′,3′ Pivaloyl)pppA(2′ OMe)pG], the “IVT yield of mRNA relative to ^7mG(3′OMe)pppA(2′OMe)pG” value at T7 RNA polymerase is listed as “almost the same yield”.

Consider “^7mG(2′ or 3′monopivaloyl)pppA(2′OMe)pG [Example 16]”, for which the “IVT yield of mRNA relative to ^7mG(3′OMe)pppA(2′OMe)pG” value on T7 RNA polymerase is listed as “almost the same yield”. The “luciferase activity of mRNA capped with the compound” value with HeLa cells (100 ng mRNA per well, 6 to 24 hours after transfection, compared with mRNA capped with ^7mG(3′OMe)pppA(2′OMe)pG, FIG. 5) is recorded as “higher luciferase activity”. In addition, the “residual rate of protein expressed by capped mRNA” value in the assay with HeLa cells (24 hours after transfection, inferred, compared with ^7mG(3′OMe)pppA(2′OMe)pG, FIG. 6) is “higher”.

Source of the values: US20250011826A1, “mRNA CAP ANALOGUE AND USE THEREOF” (HANMI FINE CHEMICAL CO., LTD., priority 2021, published 2025).
